Laboratory results as given in publication PMC8427973, “Regulation of the HTRA2 Protease Activity by an Inhibitory Antibody-Derived Peptide Ligand and the Influence on HTRA2-Specific Protein Interaction Networks in Retinal Tissues” (Biomedicines, 2021).

What was measured:
[1] = target: T1, recombinant HTRA2 protein (Homo sapiens, UniProt O43464); test: HTRA2 protease activity assay with fluorescent H2-optimal substrate; format: biochemical; conditions: for Increase of the average degradation rate of the optimal substrate H2 with respect to the untreated positive control: 100 nM HTRA2, 10 µM substrate, RT; for Average degradation rate of the optimal substrate H2 by HTRA2 (enzymatic reaction rate per minute): 100 nM recombinant HTRA2, 10 µM H2-optimal substrate, pH 8.0, RT, fluorescence ex 320 nm / em 405 nm, untreated positive control 229 U/min; for Inhibitory effect on HTRA2 after targeted alanine substitution in the CDR binding motif (mutational analysis): protease activity assay, Figure S1
T1 construct: 6xHis (C); purchased Novoprotein Scientific INC., Summit, NJ, USA
T1 sequence (O43464 134-458): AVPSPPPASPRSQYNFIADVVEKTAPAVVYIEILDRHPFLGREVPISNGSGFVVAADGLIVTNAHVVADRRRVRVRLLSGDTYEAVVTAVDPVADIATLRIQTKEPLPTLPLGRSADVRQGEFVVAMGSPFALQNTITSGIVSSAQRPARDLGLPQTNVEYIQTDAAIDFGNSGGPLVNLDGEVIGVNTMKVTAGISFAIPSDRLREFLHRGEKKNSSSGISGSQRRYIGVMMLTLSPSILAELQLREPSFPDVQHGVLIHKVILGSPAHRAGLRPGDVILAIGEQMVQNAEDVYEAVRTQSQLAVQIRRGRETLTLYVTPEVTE
Experimental: The HTRA2 protease activity assay was performed as described by Martins et al. (2003), but with some slight modifications. The experiment was performed with 100 nM recombinant HTRA2 protein (Novoprotein Scientific INC., Summit, NJ, USA) in a protease assay buffer (50 mM tris(hydroxymethyl)-aminomethane (TRIS), 0.5 mM ethylenediaminetetraacetic acid (EDTA), and 1 mM dithiothreitol (DTT), pH 8.0) containing 10 µM H2-optimal substrate (Innovagen AB, Lund, Sweden). The H2-optimal substrate is commonly used to measure the protease activity of HTRA2 and consists of a structural quencher and a fluorophore unit. The cleavage of the substrate leads to the disruption of the quencher/fluorophore complex and the degradation rate can be measured by fluorescence. The different sample groups were treated with 50 µM PDZ-Opt, 50 µM PDZ-Sub, 50 µM synthetic CDR1 peptide, or 30 µM UCF-101, respectively. The drug compound UCF-101 is an inhibitor of the catalytic domain of HTRA2 and was purchased from Sigma Aldrich (Darmstadt, Germany). The concentrations of the peptide ligands for the HTRA2 protease activity assay were chosen from the previous publication. The concentration of UCF-101 was determined to be optimal from the preliminary experiments. In addition, a positive control containing only 100 nM recombinant HTRA2 and a negative control (only protease assay buffer) were included in this experiment. All of the sample groups were incubated for 1 h at 37 °C to determine the maximum degradation rate of HTRA2. For the analysis of the enzymatic reaction rate of HTRA2, all samples were measured subsequently after the addition of the 10 µM H2-optimal substrate at RT. Fluorescence was monitored on a Spark® 10 M multimode microplate-reader (Tecan Trading AG, Männedorf, Switzerland) with an excitation at 320 nm and a fluorescence emission at 405 nm. The fluorescence background of the substrate was substracted from the fluorescence intensities of the different the sample groups to normalize the data.
To determine the proteolytic activity of HTRA2 we used the fluorescent H2 optimal substrate developed by Martins et al. (2003). The optimal substrate H2 encoded a short specific amino acid sequence, which is preferentially cleaved by HTRA2, and was also modified with a fluorescent dye and quencher. […] Under physiological conditions, the proteolytic activity of HTRA2 is suppressed by the C-terminal PDZ domain, which blocks the access of potential substrates to the catalytic domain by steric hindrance. The binding of short hydrophobic polypeptides to the allosteric PDZ domain can induce specific conformational changes of HTRA2 and are able to regulate its proteolytic activity. Therefore, Martins et al. (2003) specifically designed the peptide ligands PDZ-Opt (GQYYFV) and PDZ-Sub (GGIRRV), which are known to increase the proteolytic activity of HTRA2 in this assay.

HTRA2-PDZ domain = tested on: HTRA2-PDZ domain; parameters: method as in PMID 23457469; conditions: cited from earlier work
[2] = target: Serine protease HTRA2, mitochondrial (recombinant, 6xHis-tag) (UniProt O43464)

**Q.** Which results are given for “GGIRRV [PDZ-Sub, a peptide generated by HTRA2 auto-proteolysis, reference compound]”?
**A.** Increase of the average degradation rate of the optimal substrate H2 with respect to the untreated positive control ([1]; 50 µM peptide): up to 18%; Average degradation rate of the optimal substrate H2 by HTRA2 (enzymatic reaction rate per minute) ([1]; 50 µM peptide): 272 U/min

**Q.** For GQYYFV [PDZ-Opt, reference compound], which “Increase of the average degradation rate of the optimal substrate H2 with respect to the untreated positive control” value ([1]; 50 µM peptide) is on record?
**A.** up to 50%

**Q.** What about the “Average degradation rate of the optimal substrate H2 by HTRA2 (enzymatic reaction rate per minute)” value ([1]; 50 µM peptide) of the same molecule?
**A.** 345 U/min

**Q.** With “ASGYTATNYGLSWVR [F(6), CDR peptide for the mutational analysis, alanine at position 6]” as the molecule, how does the “Inhibitory effect on HTRA2 after targeted alanine substitution in the CDR binding motif (mutational analysis)” value (shortened to “Inhibitory effect on HTRA2”) [1] read?
**A.** particular important presence of Y(4) and F(6) for the inhibitory effect on HTRA2

**Q.** With “ASGATFTNYGLSWVR [Y(4), CDR peptide for the mutational analysis, alanine at position 4]” as the molecule, how does the “Inhibitory effect on HTRA2” value [1] read?
**A.** particular important presence of Y(4) and F(6) for the inhibitory effect on HTRA2

**Q.** For “ASGYAFTNYGLSWVR [T(5) to A(5), CDR peptide for the mutational analysis, alanine at position 5]”, which “Inhibitory effect on HTRA2” value [1] is on record?
**A.** significantly strengthened the inhibitory effect

**Q.** With AGYTGFV as the molecule, how does the “Glide score for binding to the HTRA2-PDZ domain” value (HTRA2-PDZ domain) read?
**A.** -7.903 kcal/mol

**Q.** For “YVWAGSTLSRTGNFY [scrambled CDR, scrambled CDR peptide analog]”, which “Maximum degradation rate of the H2 optimal substrate by HTRA2” value ([1]; 50 µM peptide, 1 h at 37 °C, n = 3, Figure 1C) is on record?
**A.** unable to induce the suppression of the HTRA2 protease activity

**Q.** For GQYYFV [PDZ-Opt], which average degradation rate of the fluorescent H2 optimal substrate (10 µM) by 100 nM HTRA2 with 50 µM PDZ-Opt; untreated HTRA2 229 U/min (increase up to 50%) [2] is on record?
**A.** 345 U/min

**Q.** Which average degradation rate of the fluorescent H2 optimal substrate (10 µM) by 100 nM HTRA2 with 50 µM PDZ-Sub; untreated HTRA2 229 U/min (increase up to 18%) [2] does the source give for GGIRRV [PDZ-Sub] here?
**A.** 272 U/min
